Source: ChEMBL document CHEMBL1138679, “Three-dimensional quantitative structure-activity relationship analysis of a set of Plasmodium falciparum dihydrofolate reductase inhibitors using a pharmacophore generation approach” (J Med Chem, 2004)

Target: Bifunctional dihydrofolate reductase-thymidylate synthase (Plasmodium falciparum K1, UniProt P13922)
Experiment: Inhibition constant against Plasmodium falciparum dihydrofolate reductase

Chain of Bifunctional dihydrofolate reductase-thymidylate synthase (P13922 whole entry): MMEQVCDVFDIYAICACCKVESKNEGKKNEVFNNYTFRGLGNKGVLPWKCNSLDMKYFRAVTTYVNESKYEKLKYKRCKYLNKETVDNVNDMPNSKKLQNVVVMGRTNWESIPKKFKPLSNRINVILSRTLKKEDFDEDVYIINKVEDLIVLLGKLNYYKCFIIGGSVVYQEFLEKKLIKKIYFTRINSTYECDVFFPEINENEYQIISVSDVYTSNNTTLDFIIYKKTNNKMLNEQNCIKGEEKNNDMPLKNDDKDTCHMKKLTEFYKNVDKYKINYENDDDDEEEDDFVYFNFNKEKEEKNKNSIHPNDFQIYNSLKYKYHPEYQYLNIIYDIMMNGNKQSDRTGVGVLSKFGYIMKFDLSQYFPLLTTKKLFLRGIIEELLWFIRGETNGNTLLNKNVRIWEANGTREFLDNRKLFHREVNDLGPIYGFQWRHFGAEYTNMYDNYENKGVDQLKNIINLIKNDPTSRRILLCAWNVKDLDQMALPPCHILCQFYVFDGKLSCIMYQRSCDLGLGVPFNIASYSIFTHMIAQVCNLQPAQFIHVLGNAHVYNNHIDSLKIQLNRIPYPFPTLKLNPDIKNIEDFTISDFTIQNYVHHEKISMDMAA

| Structure (SMILES) | Ki [nM] |
| --- | --- |
| Nc1ncc(-c2ccc(Cl)cc2)c(N)n1 | 0.74 |
| Nc1nc(N)c(-c2cccc(Cl)c2)c(CCOCCCOc2ccccc2)n1 | 13 |
| CCc1nc(N)nc(N)c1-c1ccccc1 | 100 |
| COC(=O)CCCc1nc(N)nc(N)c1-c1ccc(Cl)cc1 | 0.14 |
| CCOc1c(Br)cc(-c2c(N)nc(N)nc2CC)cc1Br | 37 |
| CC1(C)N=C(N)N=C(N)N1OCCCOc1cc(Cl)c(Cl)cc1Cl | 1.1 |
| N=C(NO)c1ccc(CNC(=O)c2ccc(Cl)cc2)cc1 | 1500 |
| CC1(C)N=C(N)N=C(N)N1c1ccccc1 | 140 |
| Cc1nc(N)nc(N)c1-c1ccccc1 | 110 |
| Nc1nc(N)c(-c2cccc(Cl)c2)c(CCCc2ccccc2)n1 | 42 |
| Cc1nc(N)nc(N)c1-c1ccc(Cl)cc1 | 0.84 |
| CCc1nc(N)nc(N)c1-c1ccc(C)cc1 | 1.1 |
| CCCCCCc1nc(N)nc(N)c1-c1ccccc1 | 10 |
| CCc1nc(N)nc(N)c1-c1cccc(Cl)c1 | 72 |
| CCc1nc(N)nc(N)c1-c1ccc(Cl)c(Cl)c1 [ETOPRINE] | 0.79 |
| CCc1nc(N)nc(N)c1-c1ccc(Cl)cc1Cl | 0.92 |
| NC1=NCN(c2ccc(F)cc2)C(N)=N1 | 88 |
| NC1=NCN(c2ccccc2)C(N)=N1 | 85 |
| CCc1nc(N)nc(N)c1-c1ccc2c(c1)OCO2 | 72 |
| N/C(=N\O)c1cccc(CS(=O)(=O)c2ccc(Cl)cc2)c1 | 800 |
| Nc1ncc(-c2cccc(Cl)c2)c(N)n1 | 75 |
| CCc1nc(N)nc(N)c1-c1ccc(Br)cc1 | 0.84 |
| CCc1nc(N)nc(N)c1-c1ccc(OC)cc1 | 1.3 |
| C=CCNC(=S)NNC(=O)c1cccn(Cc2cccc(Cl)c2)c1=O | 410 |
| N/N=C(\S)Nc1ccc(OCc2ccccc2)cc1 | 2000 |

| Structure (SMILES) | Ki [nM] |
| --- | --- |
| N/C(=N/O)c1ccc(Oc2c(Cl)cncc2Cl)cc1 | 930 |
| Nc1ncc(-c2ccccc2)c(N)n1 | 100 |
| CCc1nc(N)nc(N)c1-c1cccc(OC)c1 | 36 |
| C/N=C(\S)NNC(=O)c1cccn(Cc2cccc(Cl)c2)c1=O | 900 |
| NC1=NCN(c2ccc(Cl)cc2)C(N)=N1 | 0.84 |
| CC1(C)N=C(N)N=C(N)N1c1ccc(F)cc1 | 170 |
| N=C(S)N/N=C/c1ccc(Oc2ncc(C(F)(F)F)cc2Cl)cc1 | 9000 |
| N=C(NO)c1ccc(Oc2cc(Cl)cc(Cl)c2)c([N+](=O)[O-])c1 | 1700 |
| NC(=S)N/N=C/c1ccccc1 [PHENYLTHIOSEMICARBAZONE] | 31000 |
| Cc1nc(N)nc(N)c1-c1cccc(Cl)c1 | 83 |
| C/C(=N\N=C(/N)S)c1ccc(Oc2c(Cl)cncc2Cl)cc1 | 1400 |
| NNc1nc2ccccc2nc1NN | 8600 |
| CC1(C)N=C(N)N=C(N)N1c1ccc(Br)cc1 | 1.2 |
| Nc1nc(N)c(-c2ccc(Cl)cc2)c(CCCc2ccccc2)n1 | 0.74 |
| CC1(C)N=C(N)N=C(N)N1c1ccc(Cl)cc1 [CYCLOGUANIL] | 1.1 |
| COC(=O)CCCc1nc(N)nc(N)c1-c1ccccc1 | 10 |
| COc1ccc(CCCc2nc(N)nc(N)c2-c2cccc(Cl)c2)cc1 | 11 |
| Cc1[nH]c(N)cc2nc3ccccc3c1-2 | 2300 |
| CC1(C)N=C(N)N=C(N)N1c1ccc(Cl)c(Cl)c1 [CHLORCYCLOGUANIL] | 1.1 |
| CCc1nc(N)nc(N)c1-c1ccc(-c2ccccc2)cc1 | 90 |
| COC(=O)c1sccc1-c1ccc(/C(C)=N/NC(N)=O)o1 | 20000 |
| CCc1nc(N)nc(N)c1-c1ccc(OCc2ccc(Cl)cc2Cl)c(OC)c1 | 9.6 |
| Cc1cc2nc3n(c2cc1C)C(C)(C)NC(N)=N3 | 180 |
| CCc1nc(N)nc(N)c1-c1ccc(C(C)(C)C)cc1 | 0.77 |
